Measurements taken from ChEMBL document CHEMBL2074568, “Characterization of the transport properties of human multidrug resistance protein 7 (MRP7, ABCC10)” (Mol Pharmacol, 2003).

Tests used:
Assay type in all cases: functional, cell membranes
Design in all cases: scale not given: the % may be the effect or the level left
[1] = target: T1, ATP-binding cassette sub-family C member 10 (Homo sapiens) (UniProt Q5T3U5); experiment: TP_TRANSPORTER: inhibition of E217betaG uptake (E217betaG: 1 uM, Zaprinast: 100uM) in membrane vesicles from MRP7-expressing HEK293 cells; settings: Membrane vesicle
T1 sequence (whole entry): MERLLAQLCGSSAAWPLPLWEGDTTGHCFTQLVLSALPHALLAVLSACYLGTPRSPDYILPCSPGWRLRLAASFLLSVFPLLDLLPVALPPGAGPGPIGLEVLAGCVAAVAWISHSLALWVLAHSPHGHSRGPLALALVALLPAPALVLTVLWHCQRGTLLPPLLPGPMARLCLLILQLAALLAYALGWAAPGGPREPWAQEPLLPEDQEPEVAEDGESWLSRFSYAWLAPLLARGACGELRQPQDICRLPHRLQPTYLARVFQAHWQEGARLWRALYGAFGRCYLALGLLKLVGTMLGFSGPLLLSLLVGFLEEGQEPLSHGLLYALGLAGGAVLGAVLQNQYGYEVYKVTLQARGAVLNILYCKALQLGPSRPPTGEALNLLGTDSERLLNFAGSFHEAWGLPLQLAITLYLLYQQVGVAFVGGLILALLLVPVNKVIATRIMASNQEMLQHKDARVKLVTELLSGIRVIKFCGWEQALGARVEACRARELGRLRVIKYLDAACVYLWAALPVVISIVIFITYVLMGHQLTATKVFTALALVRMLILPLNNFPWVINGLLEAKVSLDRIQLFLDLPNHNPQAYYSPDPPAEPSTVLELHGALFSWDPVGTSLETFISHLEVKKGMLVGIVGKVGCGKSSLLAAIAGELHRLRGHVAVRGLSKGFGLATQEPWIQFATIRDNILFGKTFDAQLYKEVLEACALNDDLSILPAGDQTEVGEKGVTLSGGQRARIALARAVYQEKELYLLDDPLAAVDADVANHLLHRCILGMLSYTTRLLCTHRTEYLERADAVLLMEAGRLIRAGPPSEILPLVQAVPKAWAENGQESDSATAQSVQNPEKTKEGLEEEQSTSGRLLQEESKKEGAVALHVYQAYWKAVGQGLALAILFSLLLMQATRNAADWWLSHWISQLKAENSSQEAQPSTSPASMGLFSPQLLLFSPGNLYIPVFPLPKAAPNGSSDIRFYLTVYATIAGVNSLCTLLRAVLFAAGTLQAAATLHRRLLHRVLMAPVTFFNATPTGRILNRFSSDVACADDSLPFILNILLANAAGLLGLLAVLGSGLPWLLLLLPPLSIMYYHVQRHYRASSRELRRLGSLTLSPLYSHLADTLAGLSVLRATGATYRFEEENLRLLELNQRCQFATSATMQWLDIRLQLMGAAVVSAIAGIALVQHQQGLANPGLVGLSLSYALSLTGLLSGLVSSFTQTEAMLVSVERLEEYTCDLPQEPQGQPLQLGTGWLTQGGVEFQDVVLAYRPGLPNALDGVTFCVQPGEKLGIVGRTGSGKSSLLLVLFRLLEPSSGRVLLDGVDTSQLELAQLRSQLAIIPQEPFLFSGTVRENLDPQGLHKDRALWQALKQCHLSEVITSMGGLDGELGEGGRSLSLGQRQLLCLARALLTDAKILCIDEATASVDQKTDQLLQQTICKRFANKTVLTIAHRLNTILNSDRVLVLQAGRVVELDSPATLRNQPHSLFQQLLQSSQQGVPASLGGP

[2] = target: T1, ATP-binding cassette sub-family C member 10 (Homo sapiens); experiment: TP_TRANSPORTER: inhibition of E217betaG uptake (E217betaG: 1 uM, LTC4:1uM) in membrane vesicles from MRP7-expressing HEK293 cells; settings: Membrane vesicle
[3] = target: T1, ATP-binding cassette sub-family C member 10 (Homo sapiens); experiment: TP_TRANSPORTER: inhibition of E217betaG uptake (E217betaG: 1 uM, Glycocholate: 100uM) in membrane vesicles from MRP7-expressing HEK293 cells; settings: Membrane vesicle
[4] = target: T1, ATP-binding cassette sub-family C member 10 (Homo sapiens); experiment: TP_TRANSPORTER: inhibition of E217betaG uptake (E217betaG: 1 uM, Sildefafil:100uM) in membrane vesicle from MRP7-expressing HEK293 cells
[5] = target: T1, ATP-binding cassette sub-family C member 10 (Homo sapiens); experiment: TP_TRANSPORTER: inhibition of E217betaG uptake (E217betaG: 1 uM, VP-16: 30 uM) in membrane vesicles from MRP7-expressing HEK293 cells; settings: Membrane vesicle
[6] = target: T1, ATP-binding cassette sub-family C member 10 (Homo sapiens); experiment: TP_TRANSPORTER: inhibition of E217betaG uptake (E217betaG: 1 uM, Doxorubicin: 30 uM) in membrane vesicles from MRP7-expressing HEK293 cells; settings: Membrane vesicle
[7] = target: T1, ATP-binding cassette sub-family C member 10 (Homo sapiens); experiment: TP_TRANSPORTER: inhibition of E217betaG uptake (E217betaG: 1 uM, Sulfinpyrazone:30uM) in membrane vesicles from MRP7-expressing HEK293 cells; settings: Membrane vesicle
[8] = target: T1, ATP-binding cassette sub-family C member 10 (Homo sapiens); experiment: TP_TRANSPORTER: inhibition of E217betaG uptake (E217betaG: 1 uM, Trequinsin: 100 uM) in membrane vesicles from MRP7-expressing HEK293 cells; settings: Membrane vesicle
[9] = target: T1, ATP-binding cassette sub-family C member 10 (Homo sapiens); experiment: TP_TRANSPORTER: inhibition of E217betaG uptake (E217betaG: 1 uM, E2 3SO4 17betaG: 100uM) in membrane vesicles from MRP7-expressing HEK293 cells; settings: Membrane vesicle
[10] = target: T1, ATP-binding cassette sub-family C member 10 (Homo sapiens); experiment: TP_TRANSPORTER: inhibition of E217betaG uptake (E217betaG: 1 uM, 16alpha,17beta-Estriol 3-sulfate: 100 uM) in membrane vesicles from MRP7-expressing HEK293 cells; settings: Membrane vesicle
[11] = target: T1, ATP-binding cassette sub-family C member 10 (Homo sapiens); experiment: TP_TRANSPORTER: inhibition of E217betaG uptake (E217betaG: 1 uM, beta-Estradiol: 100 uM) in membrane vesicles from MRP7-expressing HEK293 cells; settings: Membrane vesicle
[12] = target: T1, ATP-binding cassette sub-family C member 10 (Homo sapiens); experiment: TP_TRANSPORTER: inhibition of E217betaG uptake (E217betaG: 1 uM, Taxol: 30 uM) in membrane vesicles from MRP7-expressing HEK293 cells; settings: Membrane vesicle
[13] = target: T1, ATP-binding cassette sub-family C member 10 (Homo sapiens); experiment: TP_TRANSPORTER: inhibition of E217betaG uptake (E217betaG: 1 uM, DNP-SG:10uM) in membrane vesicles from MRP7-expressing HEK293 cells; settings: Membrane vesicle
[14] = target: T1, ATP-binding cassette sub-family C member 10 (Homo sapiens); experiment: TP_TRANSPORTER: inhibition of E217betaG uptake (E217betaG: 1 uM, MTX:100uM) in membrane vesicles from MRP7-expressing HEK293 cells; settings: Membrane vesicle
[15] = target: T1, ATP-binding cassette sub-family C member 10 (Homo sapiens); experiment: TP_TRANSPORTER: inhibition of E217betaG uptake (E217betaG: 1 uM, 16alpha,17beta-Estriol 16-(beta-D-glucuronide): 100 uM) in membrane vesicles from MRP7-expressing HEK293 cells; settings: Membrane vesicle
[16] = target: T1, ATP-binding cassette sub-family C member 10 (Homo sapiens); experiment: TP_TRANSPORTER: inhibition of E217betaG uptake (E217betaG: 1 uM, Vincristine: 30 uM) in membrane vesicles from MRP7-expressing HEK293 cells; settings: Membrane vesicle
[17] = target: T1, ATP-binding cassette sub-family C member 10 (Homo sapiens); experiment: TP_TRANSPORTER: inhibition of E217betaG uptake (E217betaG: 1 uM, 16alpha,17beta-Estriol 3-(beta-D-glucuronide): 100 uM) in membrane vesicles from MRP7-expressing HEK293 cells; settings: Membrane vesicle
[18] = target: T1, ATP-binding cassette sub-family C member 10 (Homo sapiens); experiment: TP_TRANSPORTER: inhibition of E217betaG uptake (E217betaG: 1 uM, Verapamil: 100 uM) in membrane vesicles from MRP7-expressing HEK293 cells; settings: Membrane vesicle
[19] = target: T1, ATP-binding cassette sub-family C member 10 (Homo sapiens); experiment: TP_TRANSPORTER: inhibition of E217betaG uptake (E217betaG: 1 uM, Estradiol-3-glucuronide: 100 uM) in membrane vesicles from MRP7-expressing HEK293 cells; settings: Membrane vesicle
[20] = target: T1, ATP-binding cassette sub-family C member 10 (Homo sapiens); experiment: TP_TRANSPORTER: inhibition of E217betaG uptake (E217betaG: 1 uM, Glycholithocholate-3-sulfate: 30 uM) in membrane vesicles from MRP7-expressing HEK293 cells; settings: Membrane vesicle
[21] = target: T1, ATP-binding cassette sub-family C member 10 (Homo sapiens); experiment: TP_TRANSPORTER: inhibition of E217betaG uptake (E217betaG: 1 uM, 17alpha-Ethynyl-17beta-Estradiol: 100 uM) in membrane vesicles from MRP7-expressing HEK293 cells; settings: Membrane vesicle

CCCOc1ccccc1-c1nc2[nH]nnc2c(=O)[nH]1
Activity [1]: 48.3%

CCCCC/C=C\C\C=C/C=C/C=C/[C@@H](SC[C@@H](NC(=O)CC[C@H](N)C(=O)O)C(=O)NCC(=O)O)[C@@H](O)CCCC(=O)O
Activity [2]: 40.4%

C[C@H](CCC(=O)NCC(=O)O)[C@H]1CC[C@H]2[C@@H]3[C@H](O)C[C@@H]4C[C@H](O)CC[C@]4(C)[C@H]3C[C@H](O)[C@]12C
Activity [3]: 58.4%

CCCc1nn(C)c2c(=O)[nH]c(-c3cc(S(=O)(=O)N4CCN(C)CC4)ccc3OCC)nc12
Activity [4]: 41%

COc1cc([C@@H]2c3cc4c(cc3[C@@H](O[C@@H]3O[C@@H]5CO[C@@H](C)O[C@H]5[C@H](O)[C@H]3O)[C@H]3COC(=O)[C@H]23)OCO4)cc(OC)c1O
Activity [5]: 49.5%

COc1cccc2c1C(=O)c1c(O)c3c(c(O)c1C2=O)C[C@@](O)(C(=O)CO)C[C@@H]3O[C@H]1C[C@H](N)[C@H](O)[C@H](C)O1
Activity [6]: 18.2%

O=C1C(CC[S+]([O-])c2ccccc2)C(=O)N(c2ccccc2)N1c1ccccc1 (stereo unspecified)
Activity [7]: 39.5%

COc1cc2c(cc1OC)-c1c/c(=N\c3c(C)cc(C)cc3C)n(C)c(=O)n1CC2
Activity [8]: 44.3%

C[C@]12CC[C@@H]3c4ccc(OS(=O)(=O)O)cc4CC[C@H]3[C@@H]1CC[C@@H]2O[C@@H]1O[C@H](C(=O)O)[C@@H](O)[C@H](O)[C@H]1O
Activity [9]: 45.1%

C[C@]12CC[C@@H]3c4ccc(OS(=O)(=O)O)cc4CC[C@H]3[C@@H]1C[C@@H](O)[C@@H]2O
Activity [10]: 49.4%

C[C@]12CC[C@@H]3c4ccc(O)cc4CC[C@H]3[C@@H]1CC[C@@H]2O
Activity [11]: 60.7%

CC(=O)O[C@H]1C(=O)[C@@]2(C)[C@H]([C@H](OC(=O)c3ccccc3)[C@]3(O)C[C@H](OC(=O)[C@H](O)[C@@H](NC(=O)c4ccccc4)c4ccccc4)C(C)=C1C3(C)C)[C@]1(OC(C)=O)CO[C@@H]1C[C@@H]2O
Activity [12]: 22.1%

N[C@@H](CCC(=O)N[C@H](CSc1ccc([N+](=O)[O-])cc1[N+](=O)[O-])C(=O)NCC(=O)O)C(=O)O
Activity [13]: 46.4%

CN(Cc1cnc2nc(N)nc(N)c2n1)c1ccc(C(=O)N[C@@H](CCC(=O)O)C(=O)O)cc1
Activity [14]: 74%

C[C@]12CC[C@@H]3c4ccc(O)cc4CC[C@H]3[C@@H]1C[C@@H](O[C@@H]1O[C@H](C(=O)O)[C@@H](O)[C@H](O)[C@H]1O)[C@@H]2O
Activity [15]: 53%

CC[C@]1(O)C[C@H]2CN(CCc3c([nH]c4ccccc34)[C@@](C(=O)OC)(c3cc4c(cc3OC)N(C=O)[C@H]3[C@@](O)(C(=O)OC)[C@H](OC(C)=O)[C@]5(CC)C=CCN6CC[C@]43[C@@H]65)C2)C1
Activity [16]: 18.4%

C[C@]12CC[C@@H]3c4ccc(O[C@@H]5O[C@H](C(=O)O)[C@@H](O)[C@H](O)[C@H]5O)cc4CC[C@H]3[C@@H]1C[C@@H](O)[C@@H]2O
Activity [17]: 58.5%

COc1ccc(CCN(C)CCCC(C#N)(c2ccc(OC)c(OC)c2)C(C)C)cc1OC (stereo unspecified)
Activity [18]: 62.3%

C[C@]12CC[C@@H]3c4ccc(O[C@@H]5O[C@H](C(=O)O)[C@@H](O)[C@H](O)[C@H]5O)cc4CC[C@H]3[C@@H]1CC[C@@H]2O
Activity [19]: 60.1%

C[C@H](CCC(=O)NCC(=O)O)[C@H]1CC[C@H]2[C@@H]3CC[C@@H]4C[C@H](OS(=O)(=O)O)CC[C@]4(C)[C@H]3CC[C@]12C
Activity [20]: 41.8%

C#C[C@]1(O)CC[C@H]2[C@@H]3CCc4cc(O)ccc4[C@H]3CC[C@@]21C
Activity [21]: 51.4%
